In patent US20250339409A1, “USES OF PAN BET INHIBITORS” (VYNE THERAPEUTICS INC., priority 2021, published 2025):

Tested on: IL-1β, IL-6, IL-8, IL-17, IL-18, IL-23, IL-36 and TNF-α
Test: Serum pro-inflammatory cytokine assays (Luminex, ELISA) in the imiquimod model
Assay type: in vivo, female Balb/c mice
Settings: imiquimod-induced mice
Experimental: Immediately after the TEWL measurements on D14, mice are maintained under gas anesthesia and blood is taken from each mouse by intracardiac puncture. Blood samples are placed at +4° C. for 20 to 30 minutes before being centrifuged at 3000 rpm and +4° C. for 20 minutes. Serum is collected, frozen at −20° C. and then stored at −80° C. awaiting serum biomarkers assays (cytokines).
Assays of the 8 pro-inflammatory cytokines IL-1β, IL-6, IL-8, IL-17, IL-18, IL-23, IL-36 and TNF-α associated with psoriasis and other inflammatory diseases is performed on the isolated and frozen serum samples from blood collected at the end of the experiment on mice of the 7 experimental groups 1 to 7.
The Luminex® technique using magnetic beads technology and ProcartaPlex® immunoassay kit from the Invitrogen division of Thermofisher Scientific is used to perform the assays of the 7 multiplexed cytokines IL-1β, IL-6, IL-8, IL-17, IL-18, IL-23, and TNF-α. Analyte-specific antibodies for the 7 cytokines is pre-coated onto color-coded magnetic microparticles. Microparticles, standards and serum samples (non-diluted as recommended in the instruction manual) is pipetted into wells and the immobilized antibodies bind the analytes of interest. After washing away any unbound substances, a biotinylated antibody cocktail specific to the analytes of interest is added to each well. Following a wash to remove any unbound biotinylated antibody, streptavidin-phycoerythrin conjugate (Streptavidin-PE), which binds to the biotinylated antibody, is added to each well. A final wash removes unbound Streptavidin-PE and the microparticles is resuspended in buffer and read using a Bio-Rad Bio-Plex 200 Analyzer. A magnet in the analyzer captures and holds the superparamagnetic microparticles in a monolayer. Two spectrally distinct Light Emitting Diodes (LED) illuminate the microparticles. One LED identifies the analyte detected and the second LED determines the magnitude of the PE-derived signal, which is in direct proportion to the amount of the analyte bound. Each well is imaged with a Charged Coupled Device (CCD) camera. A representative standard curve from the 7 cytokines is diluted in a serial fourfold steps in specific standard buffer. Each standard, control and serum sample is analyzed in duplicate.
Quantitative sandwich Enzyme-Linked ImmunoSorbent Assay (ELISA) using mouse IL-36 immunoassay kit from the Invitrogen division of Thermofisher Scientific is used to perform the assay. A purified anti-mouse polyclonal antibody against the specific antigen IL-36 pre-coated onto a microplate is used. Standard, control, and serum samples, as recommended in the instruction manual, are pipetted into the wells and any mouse specific antigen present is bound by the immobilized antibody. After washing away any unbound substances, a biotin-conjugated anti-mouse IL-36 antibody is incubated in each well. Then, after washing, streptavidin-Horseradish Peroxidase (HRP) complex is added to the wells, allowing non-covalent biological interaction with biotin. Following several washes to remove any unbound complex, a TetraMethylBenzidine (TMB) substrate solution is added to the wells. The enzyme reaction yields a blue product that turns yellow when the stop solution is added. The intensity of the colour is measured at 450 nm and 570 nm using a microplate reader. The values of 570 nm are subtracted from those of 450 nm and data is in proportion to the amount of […] bound in the initial step. The serum samples values are then read off the standard curves. A representative standard curve from IL-36 is diluted in a serial two folds step in assay buffer. Each standard, control and serum sample is analyzed in duplicate.

Cn1cc(-c2cccc(O)c2Oc2ccccc2)c2cc[nH]c2c1=O [BETi1]
Inflammatory Biomarkers, Mean score values, IL-1β (D14, listed as BETi1 0.001%): 49.00 pg/mL
Inflammatory Biomarkers, Mean score values, IL-6 (D14, listed as BETi1 0.001%): 123.25 pg/mL
Inflammatory Biomarkers, Mean score values, IL-8 (D14, listed as BETi1 0.001%): 41.82 pg/mL
Inflammatory Biomarkers, Mean score values, IL-17 (D14, listed as BETi1 0.001%): 74.77 pg/mL
Inflammatory Biomarkers, Mean score values, IL-18 (D14, listed as BETi1 0.001%): 241.77 pg/mL
Inflammatory Biomarkers, Mean score values, IL-23 (D14, listed as BETi1 0.001%): 51.02 pg/mL
Inflammatory Biomarkers, Mean score values, IL-36 (D14, listed as BETi1 0.001%): 65.63 pg/mL
Inflammatory Biomarkers, Mean score values, TNF-α (D14, listed as BETi1 0.001%): 36.20 pg/mL
Inflammatory Biomarkers, Mean score values, IL-1β (D14, listed as BETi1 0.1%): 24.31 pg/mL
Inflammatory Biomarkers, Mean score values, IL-6 (D14, listed as BETi1 0.1%): 56.29 pg/mL
Inflammatory Biomarkers, Mean score values, IL-8 (D14, listed as BETi1 0.1%): 21.40 pg/mL
Inflammatory Biomarkers, Mean score values, IL-17 (D14, listed as BETi1 0.1%): 25.08 pg/mL
Inflammatory Biomarkers, Mean score values, IL-18 (D14, listed as BETi1 0.1%): 138.90 pg/mL
Inflammatory Biomarkers, Mean score values, IL-23 (D14, listed as BETi1 0.1%): 20.66 pg/mL
Inflammatory Biomarkers, Mean score values, IL-36 (D14, listed as BETi1 0.1%): 26.91 pg/mL
Inflammatory Biomarkers, Mean score values, TNF-α (D14, listed as BETi1 0.1%): 18.27 pg/mL
Inflammatory Biomarkers, Mean score values, IL-1β (D14, listed as BETi1 1.0%): 39.46 pg/mL
Inflammatory Biomarkers, Mean score values, IL-6 (D14, listed as BETi1 1.0%): 96.09 pg/mL
Inflammatory Biomarkers, Mean score values, IL-8 (D14, listed as BETi1 1.0%): 23.50 pg/mL
Inflammatory Biomarkers, Mean score values, IL-17 (D14, listed as BETi1 1.0%): 54.13 pg/mL
Inflammatory Biomarkers, Mean score values, IL-18 (D14, listed as BETi1 1.0%): 202.85 pg/mL
Inflammatory Biomarkers, Mean score values, IL-23 (D14, listed as BETi1 1.0%): 33.19 pg/mL
Inflammatory Biomarkers, Mean score values, IL-36 (D14, listed as BETi1 1.0%): 52.58 pg/mL
Inflammatory Biomarkers, Mean score values, TNF-α (D14, listed as BETi1 1.0%): 25.05 pg/mL
Inflammatory Biomarkers, Mean score values, IL-1β (D14, listed as BETi10.01%): 32.62 pg/mL
Inflammatory Biomarkers, Mean score values, IL-6 (D14, listed as BETi10.01%): 74.31 pg/mL
Inflammatory Biomarkers, Mean score values, IL-8 (D14, listed as BETi10.01%): 30.82 pg/mL
Inflammatory Biomarkers, Mean score values, IL-17 (D14, listed as BETi10.01%): 33.44 pg/mL
Inflammatory Biomarkers, Mean score values, IL-18 (D14, listed as BETi10.01%): 146.86 pg/mL
Inflammatory Biomarkers, Mean score values, IL-23 (D14, listed as BETi10.01%): 30.04 pg/mL
Inflammatory Biomarkers, Mean score values, IL-36 (D14, listed as BETi10.01%): 30.38 pg/mL
Inflammatory Biomarkers, Mean score values, TNF-α (D14, listed as BETi10.01%): 22.16 pg/mL
